Like-named read-outs stand apart in the source and are kept apart here.
Legend:
[1] = tested on: E. coli D21f2tolC; assay: Resistance and cross-resistance levels, rpoB mutants from saturation mutagenesis (plasmid-borne), broth microdilution; assay type: cell-based, Escherichia coli
[2] = molecular target: T1, E. coli RNAP holoenzyme (Escherichia coli, UniProt P0A8T7+P0A8V2); assay type: biochemical; conditions: 0.5 μM GE or 2.2 μM Rif; lacUV5(ICAP) promoter
[3] = molecular target: T1, E. coli RNAP holoenzyme; assay type: biochemical; conditions: halted TEC containing 29 nt RNA product
[4] = molecular target: T1, E. coli RNAP holoenzyme; assay type: biochemical; conditions: 0.5 μM GE or 2.2 μM Rif; ApA primer and UTP
[5] = molecular target: T2, E. coli RNAP holoenzyme ([F^517]σ^70-RNAP holoenzyme) (Escherichia coli, UniProt P0A8T7+P0A8V2); assay: Fluorescence-detected RNAP-Rif interaction assay; assay type: binding; conditions: for Kd: calculated as koff/kon
T2 construct: made in house
Protocol: RNAP-Rif interaction assays were performed as in [Feklistov et al. (2008)]. The assays monitored the quenching of the fluorescence emission of fluorescein incorporated into RNAP holoenzyme at σ^70 residue 517 (serving as a fluorescence-resonance-energy-transfer donor) by the naphthyl moiety of Rif (serving as a fluorescence-resonance-energy-transfer acceptor; [Knight et al., 2005]; [Feklistov et al., 2008]). Fluorescence measurements were performed using a QuantaMaster QM1 spectrofluorometer (PTI, Edison, NJ) (excitation wavelength = 480 nm; emission wavelength = 530 nm; and excitation and emission slit widths = 5 nm).
For determination of association kinetics, 720 μl 2 nM [F^517]σ^70-RNAP holoenzyme and 0-2 μM GE in 40 mM Tris–HCl, pH 8.0, 100 mM NaCl, 10 mM MgCl2, 1 mM DTT, 0.02% Tween-20, and 5% glycerol was incubated 15 min at 24°C and then mixed with 30 μl 0.01–0.5 μM Rif in the same buffer at 24°C in a cuvette chamber with a mixing dead time ∼0.5 s, and fluorescence emission intensities were monitored for 30 min at 24°C. On-rates for RNAP-Rif interaction, kon, were calculated by fitting data to: I=(I0−I∞)exp(−kobst)+I∞ where kobs is the observed association rate constant at a specified Rif concentration, I is the fluorescence emission intensity at time t, Io is the fluorescence emission intensity at t = 0, and I∞ is the fluorescence emission intensity at t = ∞; followed by fitting the Rif-concentration-dependence of kobs to: kobs=kon[Rif]+koff where koff is ≥0 but is otherwise unconstrained.
Off-rates for RNAP-Rif interaction, koff, were calculated as: I=I0+(I∞−I0)[1−exp(−kofft)] where I is the fluorescence emission intensity at time t, Io is the fluorescence intensity at t = 0, and I∞ is the fluorescence intensity at t = ∞.
Equilibrium dissociation constants for RNAP-Rif interaction, Kd, were calculated as koff/kon.
The equilibrium dissociation constant for RNAP-GE interaction, Ki, was calculated from the association-kinetics data, by fitting the GE-concentration-dependence of I∞ to: I∞=(I∞,max[GE])/(Ki+[GE])

[6] = molecular target: [Asn516]β-RNAP (Escherichia coli, UniProt P0A8T7+P0A8V2, D516N); assay: biochemical; assay type: biochemical
[7] = molecular target: Escherichia coli RNAP (Escherichia coli, UniProt P0A8T7+P0A8V2); assay: biochemical; assay type: biochemical; conditions: wild-type RNAP; at the limit of detection of the assay
[8] = molecular target: [Asp565]β-RNAP (Escherichia coli, UniProt P0A8T7+P0A8V2, E565D); assay type: biochemical
[9] = molecular target: [F^517]σ^70-RNAP holoenzyme (E. coli RNAP holoenzyme labelled with fluorescein at σ^70 residue 517), wild-type RNAP (E. coli) (UniProt P0A8V2); assay: other fluorescence titration
[10] = molecular target: GE23077; assay: partial-competitive binding of GE and Rif: association kinetics for Rif (fluorescence intensity of fluorescein-labelled RNAP holoenzyme); conditions: 2000 nM GE
[11] = rpoB 565 Glu→Asp, GE^R mutant from saturation mutagenesis
[12] = rpoB 566 Gly→Arg, GE^R mutant from saturation mutagenesis
[13] = rpoB 566 Gly→Cys, GE^R mutant from saturation mutagenesis
[14] = rpoB 566 Gly→Ser, GE^R mutant from saturation mutagenesis
[15] = rpoB 684 Asn→Lys, GE^R mutant from saturation mutagenesis
[16] = rpoB 684 Asn→Thr, GE^R mutant from saturation mutagenesis
[17] = wild-type control of the saturation-mutagenesis mutants, E. coli D21f2tolC

| Compound | resistance / cross-resistance level (MIC/MICwild-type) [1, 11] | resistance / cross-resistance level (MIC/MICwild-type) [1, 12] | resistance / cross-resistance level (MIC/MICwild-type) [1, 13] | resistance / cross-resistance level (MIC/MICwild-type) [1, 14] | resistance / cross-resistance level (MIC/MICwild-type) [1, 15] | resistance / cross-resistance level (MIC/MICwild-type) [1, 16] | MICwild-type [1, 17] [µg/mL] | other results |
| --- | --- | --- | --- | --- | --- | --- | --- | --- |
| CCC/C(C)=C/C=C(\C)C(=O)c1c(O)cc([C@H](C)CC/C=C/NC(=O)OC)oc1=O (racemic) [Myx, (±)E,E-myxopyronin B] | 1 | 1 | 1 | 1 | 1 | 1 | 0.098 |  |
| ONC(=Nc1ccccc1)c1cccc(C(F)(F)F)c1 [CBR703] | 1 | 1 | 1 | 1 | 1 | 2 | 6.25 |  |
| CO[C@H]1/C=C/O[C@@]2(C)Oc3c(C)c(O)c4c(O)c(c(/C=N/N5CCN(C)CC5)c(O)c4c3C2=O)NC(=O)/C(C)=C\C=C\[C@H](C)[C@H](O)[C@@H](C)[C@@H](O)[C@@H](C)[C@H](OC(C)=O)[C@@H]1C [Rif, Rifampin] |  |  |  |  |  |  |  | inhibition of formation of RNAP-promoter open complex (RPo) [2]: does not inhibit formation of RPo; inhibition of nucleotide addition in transcription elongation, halted elongation complex [3]: does not inhibit nucleotide addition in transcription elongation; inhibition of first nucleotide addition, primer-dependent transcription initiation [4]: does not generally inhibit the first nucleotide-addition step in transcription initiation; MICwild-type: 0.2 µg/mL; Kd ([5]; absence of GE): 0.4 nM; Kd ([5]; presence of saturating GE (2000 nM)): 30 nM; koff ([5]; read-out: koff for Rif, 0 nM GE, Figure 6-figure supplement 1): 0.00019 s⁻¹; koff ([5]; read-out: koff for Rif, absence of GE, Figure 6C): 0.0002 s⁻¹; kon ([5]; read-out: kon for Rif, 0 nM GE, Figure 6-figure supplement 1 (condition assigned by comparison with Figure 6C)): 520000 M⁻¹ s⁻¹; kon ([5]; read-out: kon for Rif, absence of GE, Figure 6C): 500000 M⁻¹ s⁻¹; cross-resistance of GE^R mutants to other RNAP inhibitors ([1]; GE^R mutants): do not exhibit cross-resistance; resistance / cross-resistance level (MIC/MICwild-type) ([1]; {}): 1 |
| CO[C@H]1/C=C/O[C@@]2(C)Oc3c(C)c(O)c4c(O)c(cc(O)c4c3C2=O)NC(=O)/C(C)=C\C=C\[C@H](C)[C@H](O)[C@@H](C)[C@@H](O)[C@@H](C)[C@H](OC(C)=O)[C@@H]1C [RifSV, rifamycin SV] |  |  |  |  |  |  |  | IC50 [6]: 10000 nM |
| CO[C@H]1/C=C/O[C@@]2(C)Oc3c(C)c(O)c4c(O)c(c(NC(C)C(C)C(=O)NC[C@H]5NC(=O)CNC(=O)[C@H](O)CNC(=O)[C@@H]([C@@H](C)O)NC(=O)[C@H]([C@@H](O)[C@H](O)C(N)=O)NC(=O)[C@@H](C(C)C)NC(=O)[C@@H](CO)NC5=O)c(O)c4c3C2=O)NC(=O)/C(C)=C\C=C\[C@H](C)[C@H](O)[C@@H](C)[C@@H](O)[C@@H](C)[C@H](OC(C)=O)[C@@H]1C (stereo partly drawn) [RifaGE-3, {[α-descarboxy-Ama]GE}-NH-{RifSV}] |  |  |  |  |  |  |  | IC50 [7]: ≤ 40 nM; fold more potent than GE in inhibition of GE^R RNAP [8]: > 2500 fold; fold more potent than RifSV in inhibition of Rif^R RNAP [6]: 50 fold; IC50 ([6]; Rif-resistant RNAP [Asn516]β-RNAP, read-out: IC50): 200 nM |
| CNC(=O)[C@@H](C)[C@H]1C(=O)/C(=C(O)/C=C/C(C)=C/[C@@H](C)[C@H]2O[C@@]3(C)O[C@H](C=C[C@@]34CO4)[C@@H]2C)C(=O)N1[C@@H]1CC[C@H](O)[C@H](C)O1 [Stl, streptolydigin] |  |  |  |  |  |  |  | MICwild-type ([1]; {}): 0.78 µg/mL; resistance / cross-resistance level (MIC/MICwild-type) ([1]; {}): 1 |
| GE23077 (peptide) |  |  |  |  |  |  |  | Ki [9]: 6 nM |
| Lipiarmycin [Lpm] | 1 | 1 | 1 | 1 | 1 | 1 | 0.78 |  |
| Sorangicin | 1 | 1 | 1 | 1 | 1 | 1 | 1.56 |  |
| [F^517]σ^70-RNAP holoenzyme (E. coli RNAP holoenzyme labelled with fluorescein at σ^70 residue 517), wild-type RNAP (from UniProt P0A8V2;P0A8T7;P00579) [Asp565]β |  |  |  |  |  |  |  | Ki [10]: > 2000 nM |
| [F^517]σ^70-RNAP holoenzyme (E. coli RNAP holoenzyme labelled with fluorescein at σ^70 residue 517), wild-type RNAP (from UniProt P0A8V2;P0A8T7;P00579) [Lys684]β |  |  |  |  |  |  |  | Ki [10]: > 2000 nM |
